# Assay results published in the supplement of paper PMC5412046.
# Counter-ions that a name gives are not always drawn.
# Key:
# SB.mhdgc-1 [1] = assay: viability at highest tested concentration (MAXR) relative to DMSO; higher = less cytotoxic; conditions: SB.mhdgc-1 (hereditary c.1380delA CDH1 gastric cancer)
# In short: (§1)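 The values represent viability normalised to DMSO, expressed at the highest concentration or as trapezoidal area under the curve. Cells were hereditary or sporadic patient-derived gastric cancer cells, 500 in 5 μL medium per 1536 well. They were dosed with 23 nL of compound in DMSO by pintool over 11 threefold dilutions, with each compound's top concentration recorded. CellTiter-Glo was applied 48 h later for 30 min at room temperature before luminescence was read on a ViewLux.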
# SB.msgc-1 [2] = assay: as above; conditions: SB.msgc-1 (sporadic gastric cancer)
# In short: as §1
# SB.mhdgc-1 [3] = assay: area under the dose-response curve of % viability (trapezoidal, 11 doses) (% viability x log10 concentration); higher = less cytotoxic; conditions: SB.mhdgc-1 (hereditary c.1380delA CDH1 gastric cancer)
# In short: as §1
# SB.msgc-1 [4] = assay: as above; conditions: SB.msgc-1 (sporadic gastric cancer)
# In short: as §1
smiles,measurement,setting,value
CC(=O)N(C)c1cccc(-c2ccnc3c(C(=O)c4cccs4)cnn23)c1 [Indiplon] (top concentration 46.0829 µM),viability,SB.mhdgc-1 [1],101%
same,viability,SB.msgc-1 [2],64.2%
same,area under the dose-response curve,SB.mhdgc-1 [3],571
same,area under the dose-response curve,SB.msgc-1 [4],489
O=C1NC(=O)/C(=C/c2ccc3nccc(-c4ccncc4)c3c2)S1 [GSK-615] (top concentration 46.0829 µM),viability,SB.mhdgc-1 [1],15.3%
same,viability,SB.msgc-1 [2],44.1%
same,area under the dose-response curve,SB.mhdgc-1 [3],346
same,area under the dose-response curve,SB.msgc-1 [4],409
C[C@@H]1[C@H](O)[C@@H](C)/C=C/C=C/C=C/C=C/C=C/C=C/C=C/[C@H](O[C@@H]2O[C@H](C)[C@@H](O)[C@H](N)[C@@H]2O)C[C@@H]2O[C@](O)(C[C@@H](O)C[C@@H](O)[C@H](O)CC[C@@H](O)C[C@@H](O)CC(=O)O[C@H]1C)C[C@H](O)[C@H]2C(=O)O [Amphotericin B] (top concentration 46.0829 µM),viability,SB.mhdgc-1 [1],30.6%
same,viability,SB.msgc-1 [2],55%
same,area under the dose-response curve,SB.mhdgc-1 [3],382
same,area under the dose-response curve,SB.msgc-1 [4],564
CCN(C)C(=O)Oc1cccc([C@H](C)N(C)C)c1 [Rivastigmine tartrate] (top concentration 46.0829 µM),viability,SB.mhdgc-1 [1],106%
same,viability,SB.msgc-1 [2],125%
same,area under the dose-response curve,SB.mhdgc-1 [3],615
same,area under the dose-response curve,SB.msgc-1 [4],594
CC(=O)Oc1cc2c(s1)CCN(C(C(=O)C1CC1)c1ccccc1F)C2.Cl (stereo not drawn) [Prasugrel] (top concentration 46.0829 µM),viability,SB.mhdgc-1 [1],63.9%
same,viability,SB.msgc-1 [2],59%
same,area under the dose-response curve,SB.mhdgc-1 [3],417
same,area under the dose-response curve,SB.msgc-1 [4],452
COc1cc2ncn(-c3cc(OCc4ccccc4C(F)(F)F)c(C(N)=O)s3)c2cc1OC (top concentration 46.0829 µM),viability,SB.mhdgc-1 [1],56.5%
same,viability,SB.msgc-1 [2],45.9%
same,area under the dose-response curve,SB.mhdgc-1 [3],455
same,area under the dose-response curve,SB.msgc-1 [4],488
O=C(O)/C=C/c1ccc(O)c(O)c1 [Caffeic acid] (top concentration 46.0829 µM),viability,SB.mhdgc-1 [1],1.88%
same,viability,SB.msgc-1 [2],43.4%
same,area under the dose-response curve,SB.mhdgc-1 [3],489
same,area under the dose-response curve,SB.msgc-1 [4],488
Cc1c(CN2CCN([S+](C)(=O)[O-])CC2)sc2c(N3CCOCC3)nc(-c3cnc(N)nc3)nc12 [GNE-477] (top concentration 46.0829 µM),viability,SB.mhdgc-1 [1],11.1%
same,viability,SB.msgc-1 [2],31.5%
same,area under the dose-response curve,SB.mhdgc-1 [3],247
same,area under the dose-response curve,SB.msgc-1 [4],328
C=CCNc1c(O)cc2c(O)c1C[C@@H](C)C[C@H](OC)[C@H](O)[C@@H](C)/C=C(/C)[C@H](OC(N)=O)[C@@H](OC)/C=C\C=C(\C)C(=O)N2 [Retaspimycin] (top concentration 46.0829 µM),viability,SB.mhdgc-1 [1],7.51%
same,viability,SB.msgc-1 [2],35.9%
same,area under the dose-response curve,SB.mhdgc-1 [3],384
same,area under the dose-response curve,SB.msgc-1 [4],312
COCCCN1CCC(NC(=O)c2cc(Cl)c(N)c3c2OCC3)CC1 [Prucalopride] (top concentration 46.0829 µM),viability,SB.mhdgc-1 [1],29.1%
same,viability,SB.msgc-1 [2],17.8%
same,area under the dose-response curve,SB.mhdgc-1 [3],517
same,area under the dose-response curve,SB.msgc-1 [4],480
CC(C)[C@H]1C(=O)N[C@H](CO)Cc2c[nH]c3cccc(c23)N1C [(-)-Indolactam V] (top concentration 46.0829 µM),viability,SB.mhdgc-1 [1],115%
same,viability,SB.msgc-1 [2],67.3%
same,area under the dose-response curve,SB.mhdgc-1 [3],504
same,area under the dose-response curve,SB.msgc-1 [4],402
Cc1cc(OCCC[S+](C)(=O)[O-])cc(C)c1-c1cccc(COc2ccc3c(c2)OC[C@H]3CC(=O)O)c1 [TAK-875] (top concentration 46.0829 µM),viability,SB.mhdgc-1 [1],82.2%
same,viability,SB.msgc-1 [2],49%
same,area under the dose-response curve,SB.mhdgc-1 [3],545
same,area under the dose-response curve,SB.msgc-1 [4],488
NC1(c2ccc(-c3nc4ccn5c(=O)[nH]nc5c4cc3-c3ccccc3)cc2)CCC1 [MK-2206] (top concentration 46.0829 µM),viability,SB.mhdgc-1 [1],16.4%
same,viability,SB.msgc-1 [2],41.5%
same,area under the dose-response curve,SB.mhdgc-1 [3],370
same,area under the dose-response curve,SB.msgc-1 [4],468
N#C/C(=C\c1ccc(O)c(O)c1)C(=O)NCc1ccccc1 [Tyrphostin B42] (top concentration 46.0829 µM),viability,SB.mhdgc-1 [1],62.8%
same,viability,SB.msgc-1 [2],75%
same,area under the dose-response curve,SB.mhdgc-1 [3],584
same,area under the dose-response curve,SB.msgc-1 [4],531
O=C1\C=C(/OC2=C1C=CC=C2C3=CC=CC=C3)N4CCOCC4 (top concentration 46.0829 µM),viability,SB.mhdgc-1 [1],37.1%
same,viability,SB.msgc-1 [2],42.6%
same,area under the dose-response curve,SB.mhdgc-1 [3],436
same,area under the dose-response curve,SB.msgc-1 [4],461
COc1cc(C(C)C)c(Oc2cnc(NC(CO)CO)nc2N)cc1I [Ro 51] (top concentration 46.0829 µM),viability,SB.mhdgc-1 [1],69.2%
same,viability,SB.msgc-1 [2],51.8%
same,area under the dose-response curve,SB.mhdgc-1 [3],415
same,area under the dose-response curve,SB.msgc-1 [4],406
COc1cc(-c2nn(C3CCC(N4CCN(C(C)=O)CC4)CC3)c3ncnc(N)c23)ccc1NC(=O)c1cc2ccccc2n1C (stereo not drawn) (top concentration 46.0829 µM),viability,SB.mhdgc-1 [1],3.1%
same,viability,SB.msgc-1 [2],3.58%
same,area under the dose-response curve,SB.mhdgc-1 [3],460
same,area under the dose-response curve,SB.msgc-1 [4],442
ClC1=CC=C(C=C1)C(C#N)C2=C(Cl)C=C(C=C2Cl)N3\N=C/C(=O)NC3=O (stereo not drawn) [Diclazuril] (top concentration 46.0829 µM),viability,SB.mhdgc-1 [1],8.68%
same,viability,SB.msgc-1 [2],61%
same,area under the dose-response curve,SB.mhdgc-1 [3],538
same,area under the dose-response curve,SB.msgc-1 [4],511
N=C(N)NC(=N)N1CCOCC1 [Moroxydine] (top concentration 46.0829 µM),viability,SB.mhdgc-1 [1],52.5%
same,viability,SB.msgc-1 [2],44.6%
same,area under the dose-response curve,SB.mhdgc-1 [3],506
same,area under the dose-response curve,SB.msgc-1 [4],479
CC(C)C[C@H](CC(=O)O)C(=O)N[C@@H](Cc1c[nH]c2ccccc12)C(=O)N[C@@H](C)c1ccccc1 [GM-1489] (top concentration 46.0829 µM),viability,SB.mhdgc-1 [1],57.8%
same,viability,SB.msgc-1 [2],106%
same,area under the dose-response curve,SB.mhdgc-1 [3],472
same,area under the dose-response curve,SB.msgc-1 [4],525
CC[C@H](C)[N]1C=C(C)C2=C1C=C(C=C2C(=O)NC\C3=C(C)\C=C(\C)NC3=O)C4=CC=C(N=C4)N5CCNCC5 [GSK126] (top concentration 46.0829 µM),viability,SB.mhdgc-1 [1],3.9%
same,viability,SB.msgc-1 [2],18.6%
same,area under the dose-response curve,SB.mhdgc-1 [3],389
same,area under the dose-response curve,SB.msgc-1 [4],444
Oc1cccc(-c2nc(N3CCOCC3)c3oc4ncccc4c3n2)c1 [PI-103] (top concentration 92.1659 µM),viability,SB.mhdgc-1 [1],6.8%
same,viability,SB.msgc-1 [2],37.9%
same,area under the dose-response curve,SB.mhdgc-1 [3],308
same,area under the dose-response curve,SB.msgc-1 [4],457
